Results published in patent US11008313B2, “Substituted 1-methyl-1,2,3,4-tetrahydroisoquinoline molecules as PCSK9 allosteric binders” (Merck Sharp & Dohme Corp., priority 2016, dated 2021).
Read-outs that look alike come from different tables or passages of the source.

Experiments:
[1] = molecular target: T1, HEK293 cells stably overexpressing PCSK9 (Homo sapiens, UniProt Q8NBP7); test: Protein degradation assay (Western Blot/Sally Sue assay); assay type: cell-based; conditions: 24 hrs compound treatment, serum free DMEM
T1 construct: expressed in transfected cells
Method: Samples were run on the Sally Simple Western system from ProteinSimple (San Jose, Calif.) using default assay conditions. Briefly, 5×10^4 HEK293 cells stably overexpressing PCSK9 were seeded into Collagen I coated 96 well plates and allowed to recover overnight at 37° C. with 5% CO2. After 24 hrs of compound treatment in serum free DMEM cell culture medium, cells were washed with PBS and lysed in 100 ul RIPA buffer (Teknova) supplemented with protease inhibitors and subsequently mixed with fluorescent standards as per manufacturer's specifications, followed by denaturation at 95° C. for 5 minutes. Anti-PCSK9 mAb antibody (Abbomax, Cat. No. 601-650) was used for PCSK9 detection. The reported DC50 values represent the effective concentration of compound to lower PCSK9 protein levels, pro and mature, by 50%.

[2] = molecular target: T2, PCSK9 (Homo sapiens, UniProt Q8NBP7); test: Fluorescence polarization competition binding assay (probe: compound of Example 57); conditions: 2 μM PCSK9, 50 nM compound of Example 57 as probe, overnight incubation; read-out: FP IC
Outline: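 Competition fluorescence-polarization binding: 2 μM PCSK9 with 50 nM fluorescent probe in 20 mM HEPES pH 7.5, 150 mM NaCl, 1 mM CaCl2, 0.005% P-20, incubated with test compound overnight in the dark. Anisotropy read; % inhibition relative to DMSO wells and probe-without-PCSK9 wells.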

[3] = molecular target: T2, PCSK9; test: Differential scanning calorimetry (DSC) assay, direct binding / thermal stabilization of PCSK9; conditions: Tm(with compound)−Tm(no compound); 2 μM PCSK9, 300 μM test compound
Outline: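 Thermal stabilization of 2 μM PCSK9 with or without 300 μM compound in 25 mM HEPES pH 7.5, 150 mM NaCl, 1 mM CaCl2, 3.75% DMSO. Sample heated 20–80 °C at 200 °C/hr against buffer reference. Protein Tm derived from each thermogram.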

[4] = mature PCSK9 protein level lowered by 50%, read-out: PCSK9 DC50 (Mature)
[5] = pro PCSK9 protein level lowered by 50%, read-out: PCSK9 DC50 (Pro)

T2 sequence (Q8NBP7 153-692): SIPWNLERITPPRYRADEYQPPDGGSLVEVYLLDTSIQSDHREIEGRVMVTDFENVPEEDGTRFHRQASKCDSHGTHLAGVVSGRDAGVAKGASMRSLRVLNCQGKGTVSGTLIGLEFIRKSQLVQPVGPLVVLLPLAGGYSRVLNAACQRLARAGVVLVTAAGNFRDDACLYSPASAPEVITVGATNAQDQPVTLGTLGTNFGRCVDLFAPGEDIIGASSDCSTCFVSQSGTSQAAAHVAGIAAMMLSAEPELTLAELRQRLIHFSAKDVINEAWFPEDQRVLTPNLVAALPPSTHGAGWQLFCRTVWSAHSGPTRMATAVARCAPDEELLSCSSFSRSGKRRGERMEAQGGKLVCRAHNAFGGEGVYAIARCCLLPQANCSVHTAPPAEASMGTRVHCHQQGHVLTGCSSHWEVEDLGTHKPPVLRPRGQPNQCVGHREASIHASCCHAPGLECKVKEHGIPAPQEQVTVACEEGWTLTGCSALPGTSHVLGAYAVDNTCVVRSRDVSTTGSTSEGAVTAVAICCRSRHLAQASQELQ

SMILES	IC50 [2] [nM]	ΔTm at 300 µM [3] [°C]	also measured
COCCOc1cc2c(cc1Oc1ccc(-c3ccc(C(=O)O)cc3)c(F)c1)[C@@](C)(CC(=O)Nc1nccs1)NCC2 [Example 101, (R)-2′-fluoro-4′-((6-(2-methoxyethoxy)-1-methyl-1-(2-oxo-2-(thiazol-2-ylamino)ethyl)-1,2,3,4-tetrahydroisoquinolin-7-yl)oxy)-[1,1′-biphenyl]-4-carboxylic acid]	130	–	PCSK9 DC50 (Mature) μM ([1]; mature PCSK9 protein level lowered by 50%): inactive; PCSK9 DC50 (Pro) μM ([1]; pro PCSK9 protein level lowered by 50%): Inactive
CC(C)Cc1ccc([C@H](C)C(=O)NCCOCCOCCOCCOc2cc3c(cc2Oc2ccc(-c4ccc(C(=O)O)cc4)c(F)c2)[C@@](C)(CC(=O)Nc2nccs2)NCC3)cc1 [Example 98, 2′-fluoro-4′-(((R)-6-(((S)-14-(4-isobutylphenyl)-13-oxo-3,6,9-trioxa-12-azapentadecyl)oxy)-1-methyl-1-(2-oxo-2-(thiazol-2-ylamino)ethyl)-1,2,3,4-tetrahydroisoquinolin-7-yl)oxy)-[1,1′-biphenyl]-4-carboxylic acid]	260	–	DC50 [1, 4]: 5070 nM; DC50 [1, 5]: 6080 nM
CC(C)(C)OC(=O)/N=C(/NCCC[C@H](NC(=O)OC(C)(C)C)C(=O)NCCOCCOCCOCCOc1cc2c(cc1Oc1ccc(-c3ccc(C(=O)O)cc3)c(F)c1)[C@@](C)(CC(=O)Nc1nccs1)NCC2)NC(=O)OC(C)(C)C [Example 99, 4′-(((R)-6-(((S,Z)-6,11-bis((tert-butoxycarbonyl)amino)-2,2-dimethyl-4,12-dioxo-3,16,19,22-tetraoxa-5,7,13-triazatetracos-5-en-24-yl)oxy)-1-methyl-1-(2-oxo-2-(thiazol-2-ylamino)ethyl)-1,2,3,4-tetrahydroisoquinolin-7-yl)oxy)-2′-fluoro-[1,1′-biphenyl]-4-carboxylic acid]	718	–	DC50 [1, 4]: 9000 nM; DC50 [1, 5]: 1370 nM
COc1ccc(Oc2cc3c(cc2OC)CCN[C@]3(C)CC(=O)Nc2nccs2)cc1F [Example 10, (R)-2-(7-(3-fluoro-4-methoxyphenoxy)-6-methoxy-1-methyl-1,2,3,4-tetrahydroisoquinolin-1-yl)-N-(thiazol-2-yl)acetamide]	902	5.55	–
CC1(c2cn(CCOc3cc4c(cc3Oc3ccc(C(=O)O)c(F)c3)[C@@](C)(CC(=O)Nc3nccs3)NCC4)nn2)CCOC1 (stereo partly drawn) [Example 38, 2-fluoro-4-(((1R)-1-methyl-6-(2-(4-(3-methyltetrahydrofuran-3-yl)-1H-1,2,3-triazol-1-yl)ethoxy)-1-(2-oxo-2-(thiazol-2-ylamino)ethyl)-1,2,3,4-tetrahydroisoquinolin-7-yl)oxy)benzoic acid]	267	7	–
COc1ccc(-n2nc(-c3cn(CCOc4cc5c(cc4Oc4ccc(C(=O)O)c(F)c4)[C@@](C)(CC(=O)Nc4nccs4)NCC5)nn3)cc(C)c2=O)cc1 [Example 43, (R)-2-fluoro-4-((6-(2-(4-(1-(4-methoxyphenyl)-5-methyl-6-oxo-1,6-dihydropyridazin-3-yl)-1H-1,2,3-triazol-1-yl)ethoxy)-1-methyl-1-(2-oxo-2-(thiazol-2-ylamino)ethyl)-1,2,3,4-tetrahydroisoquinolin-7-yl)oxy)benzoic acid]	418	5.45	–
C[C@]1(CC(=O)Nc2nccs2)NCCc2cc(OCCn3cc(CNS(C)(=O)=O)nn3)c(Oc3ccc(C(=O)O)c(F)c3)cc21 [Example 50, (R)-2-fluoro-4-((1-methyl-6-(2-(4-(methylsulfonamidomethyl)-1H-1,2,3-triazol-1-yl)ethoxy)-1-(2-oxo-2-(thiazol-2-ylamino)ethyl)-1,2,3,4-tetrahydroisoquinolin-7-yl)oxy)benzoic acid]	683	6.74	–
C[C@]1(CC(=O)Nc2nccs2)NCCc2cc(OCC3CCCCO3)c(Oc3ccc(C(=O)O)c(F)c3)cc21 (stereo partly drawn) [Example 62, 2-fluoro-4-(((1R)-1-methyl-1-(2-oxo-2-(thiazol-2-ylamino)ethyl)-6-((tetrahydro-2H-pyran-2-yl)methoxy)-1,2,3,4-tetrahydroisoquinolin-7-yl)oxy)benzoic acid]	529	6.03	–
Cc1ccc(C2C(C(=O)O)c3ccccc3C(=O)N2c2cccc(-c3cn(CCOc4cc5c(cc4Oc4ccc(C(=O)O)c(F)c4)[C@@](C)(CC(=O)Nc4nccs4)NCC5)nn3)c2)cc1 (stereo partly drawn) [Example 54, 2-(3-(1-(2-(((R)-7-(4-carboxy-3-fluorophenoxy)-1-methyl-1-(2-oxo-2-(thiazol-2-ylamino)ethyl)-1,2,3,4-tetrahydroisoquinolin-6-yl)oxy)ethyl)-1H-1,2,3-triazol-4-yl)phenyl)-1-oxo-3-(p-tolyl)-1,2,3,4-tetrahydroisoquinoline-4-carboxylic acid]	837	–	DSC ΔTm [3]: 5.98 °C
COc1cc2c(cc1Oc1cc(F)c(C(=O)O)c(F)c1)[C@@](C)(CC(=O)Nc1nccs1)NCC2 [Example 5, (R)-2,6-difluoro-4-((6-methoxy-1-methyl-1-(2-oxo-2-(thiazol-2-ylamino)ethyl)-1,2,3,4-tetrahydroisoquinolin-7-yl)oxy)benzoic acid]	561	6.99	–
COc1ccccc1C(=O)Nc1ccccc1-n1cc(C(=O)NCc2cn(CCOc3cc4c(cc3Oc3ccc(C(=O)O)c(F)c3)[C@@](C)(CC(=O)Nc3nccs3)NCC4)nn2)nc1C [Example 52, (R)-2-fluoro-4-((6-(2-(4-((1-(2-(2-methoxybenzamido)phenyl)-2-methyl-1H-imidazole-4-carboxamido)methyl)-1H-1,2,3-triazol-1-yl)ethoxy)-1-methyl-1-(2-oxo-2-(thiazol-2-ylamino)ethyl)-1,2,3,4-tetrahydroisoquinolin-7-yl)oxy)benzoic acid]	778	5.58	–
COc1cc2c(cc1Oc1ccc(-c3ccc(CCC(=O)O)cc3)cc1)[C@@](C)(CC(=O)Nc1nccs1)NCC2 [Example 30, (R)-3-(4′-((6-methoxy-1-methyl-1-(2-oxo-2-(thiazol-2-ylamino)ethyl)-1,2,3,4-tetrahydroisoquinolin-7-yl)oxy)-[1,1′-biphenyl]-4-yl)propanoic acid]	450	5.48	–
COC(=O)CCc1ccc(-c2ccc(Oc3cc4c(cc3OC)CCN[C@]4(C)CC(=O)Nc3nccs3)cn2)cc1 [Example 16, methyl (R)-3-(4-(5-((6-methoxy-1-methyl-1-(2-oxo-2-(thiazol-2-ylamino)ethyl)-1,2,3,4-tetrahydroisoquinolin-7-yl)oxy)pyridin-2-yl)phenyl)propanoate]	4.15	3.57	–
Cc1ccc(-c2cn(CCOc3cc4c(cc3Oc3ccc(C(=O)O)c(F)c3)[C@@](C)(CC(=O)Nc3nccs3)NCC4)nn2)cn1 [Example 45, (R)-2-fluoro-4-((1-methyl-6-(2-(4-(6-methylpyridin-3-yl)-1H-1,2,3-triazol-1-yl)ethoxy)-1-(2-oxo-2-(thiazol-2-ylamino)ethyl)-1,2,3,4-tetrahydroisoquinolin-7-yl)oxy)benzoic acid]	530	6.96	–
COc1cc2c(cc1Oc1ccc(C(=O)O)c(F)c1)[C@@](C)(CC(=O)Nc1nccs1)NCC2 [Example 4, (R)-2-fluoro-4-((6-methoxy-1-methyl-1-(2-oxo-2-(thiazol-2-ylamino)ethyl)-1,2,3,4-tetrahydroisoquinolin-7-yl)oxy)benzoic acid]	487	7.06	–
COC(=O)c1ccc(-c2ccc(Oc3cc4c(cc3OCC3CCCCO3)CCN[C@]4(C)CC(=O)Nc3cccc(OC)c3)cc2F)cc1 (stereo partly drawn) [Example 89, methyl 2′-fluoro-4′-(((1R)-1-(2-((3-methoxyphenyl)amino)-2-oxoethyl)-1-methyl-6-((tetrahydro-2H-pyran-2-yl)methoxy)-1,2,3,4-tetrahydroisoquinolin-7-yl)oxy)-[1,1′-biphenyl]-4-carboxylate]	2.76	5.98	–
COc1cc2c(cc1Oc1cccc(F)c1)[C@@](C)(CC(=O)Nc1nccs1)NCC2 [Example 9, (R)-2-(7-(3-fluorophenoxy)-6-methoxy-1-methyl-1,2,3,4-tetrahydroisoquinolin-1-yl)-N-(thiazol-2-yl)acetamide]	847	5.92	–
